We go through 1 compound from patent US9469631B2 (Boehringer Ingelheim International GmbH, priority 2012, dated 2016).

The target of the experiment is mutant form of the human GPR119 receptor (Homo sapiens (Human), UniProt Q8TDV5, S329A/T327A). In words: LANCE cAMP-384 assay in HEK293 cells stably expressing a mutant form of human GPR119. Format: cell-based. The conditions noted are these: 20 min at 37° C. Background: TR-FRET usually uses a lanthanide donor and a delayed reading to cut background.
mutant form of the human GPR119 receptor, sequence (Q8TDV5 other isoform, or with tags, fused parts or gaps T327A/S329A): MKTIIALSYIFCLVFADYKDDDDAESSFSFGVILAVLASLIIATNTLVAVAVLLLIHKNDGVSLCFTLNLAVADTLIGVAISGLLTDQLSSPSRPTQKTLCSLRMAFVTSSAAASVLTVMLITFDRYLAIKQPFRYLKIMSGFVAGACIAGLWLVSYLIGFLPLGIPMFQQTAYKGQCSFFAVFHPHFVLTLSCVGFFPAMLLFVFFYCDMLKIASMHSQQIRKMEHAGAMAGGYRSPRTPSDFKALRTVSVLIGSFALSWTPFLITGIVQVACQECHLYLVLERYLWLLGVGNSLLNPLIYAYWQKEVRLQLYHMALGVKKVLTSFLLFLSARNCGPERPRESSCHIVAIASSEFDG

As usually defined, the EC50 is the concentration giving half of the maximal effect. A higher EC50 goes with a less potent agent. In the case of `Cc1nccn1-c1ccc(C(=O)N(C2CC2)C2CCN(C(=O)OC(C)C)CC2)cc1` [Example 51, 4-{Cyclopropyl-[4-(2-methyl-imidazol-1-yl)-benzoyl]-amino}-piperidine-1-carboxylic acid isopropyl ester], the EC50 came to 1.58 µM.
